{"source": "patent US20220023317A1", "about": "“PREVENTING OR MITIGATING CHEMOTHERAPY INDUCED ALOPECIA USING VITAMIN D” (Berg LLC, priority 2013, published 2022)", "key": {"[1]": {"tested_on": "Long Evans and Sprague Dawley rats", "procedure": "Specifically, Long Evans and Sprague Dawley rats with pups were purchased from Harlan Laboratories, Inc. They were housed and fed according to applicable animal handling rules and regulations. Pups were allowed to acclimate for 48 hours prior to the start of experiments. […] Rats were isolated from their littermates and mother for 6-hour periods of time. Subsequently, the treated area was cleaned with soap and water and pups were returned to their litters. On day 13, rats either received etoposide (1.5 mg/kg daily for 3 days) or cyclophosphamide (CTX) (37.5 mg/kg once) or combination cyclophosphamide (35 mg/kg once) and doxorubicin (2.5 mg/kg daily for 3 days). All chemotherapies were purchased from Sigma and were given intraperitoneally (i.p.) in a total volume of 0.1 mL. Alopecia was recorded 10 days after the last dose of chemotherapy."}, "[2]": {"tested_on": "EMT-6 murine breast tumor", "conditions": "male mice, topical calcitriol before i.p. cyclophosphamide; cited from earlier work"}, "[3]": {"tested_on": "Sprague-Dawley or Long Evans rats", "experiment": "Second CIA study, calcitriol 1, 2 or 3 μg/mL", "type": "in vivo, rat", "procedure": "CIA was administered topically at concentrations of 1, 2, or 3 μg/mL on Days 5 to 10 followed by administration of various chemotherapeutic agents (etoposide; cyclophosphamide; doxorubicin and cyclophosphamide; cytosine beta-D arabinofurosamine; cytosine beta-D arabinofurosamine and doxorubicin; and paclitaxel)."}, "[4]": {"experiment": "Preliminary animal toxicology study", "type": "in vivo", "conditions": "dose of about 100 μg"}, "HEKa cells [5]": {"tested_on": "HEKa cells", "experiment": "Pretreatment of cells with calcitriol before chemotherapy drugs", "type": "cell-based, human", "procedure": "Then these pretreated cells were utilized to set up the cell based assay. […] Three commonly used chemotherapy drugs (doxorubicin, cisplatin and erlotinib) were selected to evaluate calcitriol treated cells. […] In these experiments, the commercial drugs were serially diluted, starting at a concentration 4-times higher than the final desired concentration for cell incubation. […] The assay was carried out according to the previously described method in order to provide consistency and allow direct comparison. The result was based upon measurement of the total number of viable cells. […] Thus, a topical application of calcitriol could be applied at the same time as the systemic delivery of the chemotherapy. A staged application is not required."}, "SkBr-3": {"tested_on": "SkBr-3", "experiment": "Cell growth / viability assay", "type": "cell-based"}, "HEKa cells [6]": {"tested_on": "HEKa cells", "experiment": "Real-time PCR Heat Shock Protein array, calcitriol-treated HEKa", "type": "cell-based, human", "conditions": "0.1 μg/mL calcitriol, two independent experiments", "procedure": "Changes in mRNA levels were evaluated using real-time PCR quantification to assess mRNA levels in preselected subsets containing 80 pathway specific targets (see Appendix). The PCR array analysis utilized two groups of genes—those related to Heat Shock Proteins (SABiosciences), and those related to Neuroscience Ion Channels and Transporters (SABioscience). Cell culture: Primary human epidermal keratinocytes (HEKa) were maintained in Epilife Medium (Cascade Biologics, Inc., Portland Oreg.) along with Human Keratinocyte Growth Supplement (Cascade Biologics, Inc., Portland Oreg.). […] D3 treatment of HEKa cells: […] Vehicle control group of cells were treated with 5 mL media containing 1 μL of ethanol. Cells were harvested 3, 6, 16, 24, 48, or 72 hours after the start of the treatment. RNA isolation: Cells were lysed for RNA isolation at different treatment times using the RNeasy Mini kit (Qiagen, Inc., Valencia Calif.) following the manufacturer's instructions. RNA was quantified by measuring optical density at 260 nm. First Strand Synthesis: […] Real-time PCR: Products from the first strand synthesis were diluted with water, mixed with the SYBR green master mix (SABiosciences., Frederick Md.) and loaded onto PCR arrays. Real time PCR was run on the PCR Arrays (Heat Shock Protein Arrays, and Neuroscience and Ion Channel Arrays) (SABiosciences, Frederick Md.) on a Biorad CFX96. Data analyses were performed using the PCR array data analysis software available on the SABiosciences website."}, "Long Evans Rats": {"tested_on": "Long Evans Rats", "experiment": "Alopecia in chloroleukemic Long Evans rats receiving multi-course chemotherapy", "type": "in vivo, rat", "conditions": "for extent of alopecia (grade): all rats", "source_text": "Animals were then randomized in four groups.\nTreatments were started on day 6 after birth.\nUnused preparations were disposed of."}, "NIH-3T3": {"tested_on": "NIH-3T3", "experiment": "Cell growth / viability assay", "type": "cell-based"}}, "note": "Read-outs that look alike come from different tables or passages of the source."}
{"smiles": "C=C1/C(=C\\C=C2/CCC[C@]3(C)[C@@H]([C@H](C)CCCC(C)(C)O)CC[C@@H]23)C[C@@H](O)C[C@@H]1O", "note": "[Calcitriol, (1a.3B.5Z.7E)-9,10-secocholesta-5,7,10(19)-triene-1,3,25-triol]", "values": [{"measurement": "protection from etoposide-induced alopecia", "setting": "[1]; 0.1 μg of calcitriol topical for 6 hours, daily x6, etoposide 1.5 mg/kg x3", "result": "partial localized protection"}, {"measurement": "protection from cyclophosphamide-induced alopecia", "setting": "[1]; 0.3 μg calcitriol topical", "result": "full body protection"}, {"measurement": "protection from etoposide-induced alopecia", "setting": "[1]; 0.3 μg calcitriol topical", "result": "total body protection"}, {"measurement": "rate of tumor growth vs either agent alone", "setting": "[2]", "result": "greater reduction in the rate of tumor growth"}, {"measurement": "extent of hair growth", "setting": "[3]; 1 μg/mL", "result": "hair growth was limited to the treated area"}, {"measurement": "extent of hair growth", "setting": "[3]; 3 μg/mL", "result": "hair growth was also observed on the dorsal region"}, {"measurement": "protection against CIA", "setting": "[3]; 1 to 3 μg/mL applied for 6 hours, all chemotherapeutic agents tested", "result": 100, "unit": "%"}, {"measurement": "effect on cure rate with cyclophosphamide", "setting": "[3]; chloroleukemia induced with MIAC51", "result": "did not affect the cure rate"}, {"measurement": "protection from CIA, 6-hour exposure", "setting": "[3]; topical, Days 5 to 10", "result": "complete protection"}, {"measurement": "protection from CIA, 1.5 hour exposure", "setting": "[3]; topical, Days 5 to 10", "result": "no protection"}, {"measurement": "dermal irritation", "setting": "[4]", "result": "no dermal irritation"}, {"measurement": "skin penetration", "setting": "[4]", "result": "excellent epidermal penetration without substantial dermal penetration"}, {"measurement": "HEKa growth after prolonged calcitriol exposure", "setting": "HEKa cells [5]; 0.1 μg/mL calcitriol, two cell passages", "result": "stopped growing"}, {"measurement": "chemoprotection, pre-treatment group vs simultaneous treatment group", "setting": "HEKa cells [5]; 0.1 μg/mL, doxorubicin, cisplatin, erlotinib", "result": "nearly identical"}, {"measurement": "effect of calcitriol on cell growth", "setting": "SkBr-3", "result": "no significant growth promoting or growth inhibiting effects"}, {"measurement": "effect of calcitriol on cytotoxic effect of Doxorubicin", "setting": "SkBr-3", "result": "did not appear to appreciably alter"}, {"measurement": "DNAJC6 mRNA regulation pattern", "setting": "HEKa cells [6]", "result": "Downregulated"}, {"measurement": "HSF4 mRNA regulation pattern", "setting": "HEKa cells [6]", "result": "Upregulated at 48 hours"}, {"measurement": "HSPA2 mRNA regulation pattern", "setting": "HEKa cells [6]", "result": "Upregulated at 48 hours"}, {"measurement": "HSPB1 mRNA regulation pattern", "setting": "HEKa cells [6]", "result": "Down regulated at 48 hours"}, {"measurement": "extent of alopecia (grade)", "setting": "Long Evans Rats; ADM + paclitaxel + etoposide, first round", "result": "did not exhibit any signs of alopecia"}, {"measurement": "rats with alopecia grade 0 (number)", "setting": "Long Evans Rats; ADM + paclitaxel + etoposide, second round, topical calcitriol, of 32", "result": 32}, {"measurement": "extent of alopecia (grade)", "setting": "Long Evans Rats; CTX + ADM + ARA-C, first round", "result": "did not exhibit any signs of alopecia"}, {"measurement": "rats with alopecia grade 0 (number)", "setting": "Long Evans Rats; CTX + ADM + ARA-C, second round, topical calcitriol, of 31", "result": 31}, {"measurement": "rats with alopecia grade 0 (number)", "setting": "Long Evans Rats; CTX + ADM + cytarabine (ARA-C), first round, topical calcitriol 2 μg/mL, of 40", "result": 40}, {"measurement": "extent of alopecia (grade)", "setting": "Long Evans Rats; CTX + ADM, first round", "result": "did not exhibit any signs of alopecia"}, {"measurement": "rats with alopecia grade 0 (number)", "setting": "Long Evans Rats; CTX + ADM, second round, topical calcitriol, of 20", "result": 20}, {"measurement": "rats with alopecia grade 0 (number)", "setting": "Long Evans Rats; CTX + doxorubicin (ADM), first round, topical calcitriol 2 μg/mL, of 40", "result": 40}, {"measurement": "extent of alopecia (grade)", "setting": "Long Evans Rats; CTX + paclitaxel + etoposide, first round", "result": "did not exhibit any signs of alopecia"}, {"measurement": "rats with alopecia grade 0 (number)", "setting": "Long Evans Rats; CTX + paclitaxel + etoposide, first round, topical calcitriol 2 μg/mL, of 40", "result": 40}, {"measurement": "rats with alopecia grade 0 (number)", "setting": "Long Evans Rats; CTX + paclitaxel + etoposide, second round, topical calcitriol, of 33", "result": 33}, {"measurement": "extent of alopecia (grade)", "setting": "Long Evans Rats; CTX, first round of chemotherapy", "result": "did not exhibit any signs of alopecia"}, {"measurement": "rats with alopecia grade 0 (number)", "setting": "Long Evans Rats; CTX, first round of chemotherapy, topical calcitriol 2 μg/mL 0.1 mL daily x6, 0 = no alopecia, of 40", "result": 40}, {"measurement": "rats with alopecia grade 0 (number)", "setting": "Long Evans Rats; CTX, second round of chemotherapy, topical calcitriol days 40-45, of 10", "result": 10}, {"measurement": "rats with alopecia grade 0 (number)", "setting": "Long Evans Rats; Doxorubicin (ADM) + paclitaxel + etoposide, first round, topical calcitriol 2 μg/mL, of 40", "result": 40}, {"measurement": "protection from CIA", "setting": "Long Evans Rats; calcitriol 2 μg/mL, each of five chemotherapy regimens, first and second cycles", "result": 100, "unit": "%"}, {"measurement": "protection from CIA", "setting": "Long Evans Rats; cyclophosphamide and doxorubicin group, both cycles", "result": 100, "unit": "%"}, {"measurement": "protection from CIA", "setting": "Long Evans Rats; cyclophosphamide group, both cycles", "result": 100, "unit": "%"}, {"measurement": "protection from CIA", "setting": "Long Evans Rats; cyclophosphamide, doxorubicin and cytarabine group, both cycles", "result": 100, "unit": "%"}, {"measurement": "protection from CIA", "setting": "Long Evans Rats; cyclophosphamide, paclitaxel and etoposide group, both cycles", "result": 100, "unit": "%"}, {"measurement": "protection from CIA", "setting": "Long Evans Rats; doxorubicin, paclitaxel and etoposide group, both cycles", "result": 100, "unit": "%"}, {"measurement": "effect of calcitriol on cell growth", "setting": "NIH-3T3", "result": "no significant growth promoting or growth inhibiting effects"}, {"measurement": "effect of calcitriol on cytotoxic effect of Doxorubicin", "setting": "NIH-3T3", "result": "did not appear to appreciably alter"}]}
